Measured values reported in PMC7756445, “A Novel Prodrug of a nNOS Inhibitor with Improved Pharmacokinetic Potential” (Chemmedchem, 2020).

Key:
mARC1 = biological target: T1, mARC1 (Homo sapiens, UniProt Q5VT66); assay: Bioconversion with the mARC enzyme system (UV/Vis NADH assay, LC-MS); type: in vitro ADME; conditions: for conversion to reduced amidine 1 (LC-MS): mARC1 incubation
T1 sequence (Q5VT66 41-337 limits assumed): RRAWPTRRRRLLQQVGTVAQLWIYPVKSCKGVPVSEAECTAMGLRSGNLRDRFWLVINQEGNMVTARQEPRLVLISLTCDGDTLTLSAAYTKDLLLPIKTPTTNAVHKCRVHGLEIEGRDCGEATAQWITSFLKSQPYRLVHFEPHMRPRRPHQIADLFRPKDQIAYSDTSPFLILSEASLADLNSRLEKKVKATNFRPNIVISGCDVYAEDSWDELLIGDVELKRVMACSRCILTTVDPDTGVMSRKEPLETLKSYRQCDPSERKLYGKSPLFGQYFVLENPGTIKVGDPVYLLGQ
Procedure: (§1) The turnover rate of the amidoxime 2 was tested by an enzymatic NADH assay ^[38] with the mARC enzyme system in comparison to the model substrate benzamidoxime (BAO).
(§2) Due to this known in vivo studies and to other known prodrugs which are activated by mARC, for example, upamostat and ximelagatran, ^[38] it can be expected that the amidoxime prodrug 2 will also be converted extensively in vivo, and is thus a very suitable prodrug for the amidine 1 and making it orally available.
(§3) The assay was performed as previously described. ^[38] The proteins were dissolved in 20 mM of 2‐(N‐morpholino)ethanesulfonic acid (MES) buffer (pH 6.0) in disposable micro UV cuvettes. Each batch contained 15 μg human mARC, 7 μg B5 and 0.16 μg B5R. The enzymes were preincubated with the respective substrate (concentration 3 mM) for 3 min at 37 °C (total volume 240 μL). This mixture was measured as blank value and immediately mixed with 60 μL NADH (concentration 1 mM). The kinetics were measured over a period of 15 min at 37 °C, with absorption between 300 and 400 nm being measured at intervals of 30 sec. The measurement was stopped when the absorption stopped changing. The measurements were taken with a Varian Cary® 50 UV/Vis spectrophotometer from Agilent, which was tempered with a Varian Cary® PCB‐150 Peltier Controlled Cryobath. The samples were mixed with cold methanol and centrifuged for 5 min at 10 000 rpm, Swing‐out Rotor, and stored at −80 °C for further analysis.
(§4) A Bruker Amazon SL Ion Trap with upstream Agilent 1260 HPLC system was used with a Waters Xterra MS C8, 4.6×50 mm, 3.5 μm column, with Phenomenex, Security Guard C18 precolumn 3×4 mm. A gradient was employed with eluent A: 0.1 % acetic acid Suprapur, Merck, in Aqua Bidest, eluent B: CH3CN, Sigma Aldrich Chromasolv for gradient HPLC. The gradient was changed from 97 % A to 100 % B within 10 min. The injection volume was 1 μL and 10 μL respectively. The column temperature was 20 °C. Software of the HPLC: Hystar 3.2 SR 2. Software to control the mass spectrometer: Bruker Trap Control 7.0 Software to evaluate the data: Bruker Data Analysis 4.0.

mARC2 = biological target: T2, mARC2 (Homo sapiens, UniProt Q969Z3); assay: as above; type: in vitro ADME; conditions: for conversion to reduced amidine 1 (LC-MS): mARC2 incubation
T2 sequence (Q969Z3 36-335): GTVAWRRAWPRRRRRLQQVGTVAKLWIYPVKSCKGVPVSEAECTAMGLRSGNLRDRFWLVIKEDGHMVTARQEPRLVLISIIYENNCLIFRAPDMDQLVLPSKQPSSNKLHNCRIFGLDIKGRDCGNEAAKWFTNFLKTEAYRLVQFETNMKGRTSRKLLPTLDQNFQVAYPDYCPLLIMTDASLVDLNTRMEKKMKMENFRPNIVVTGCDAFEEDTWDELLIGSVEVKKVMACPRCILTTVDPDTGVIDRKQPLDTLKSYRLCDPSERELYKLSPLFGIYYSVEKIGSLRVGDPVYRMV
Procedure: as §1, §2, §3, §4

- conversion to reduced amidine 1 (LC-MS) (mARC1): could be found
- conversion to reduced amidine 1 (LC-MS) (mARC1; listed as amidoxime): completely converted
- turnover rate (NADH consumption) compared with BAO (mARC1; mARC1 with B5 and B5R, substrate 3 mM, pH 6.0, 37 °C): clearly identical
- conversion to reduced amidine 1 (LC-MS) (mARC2): could be found
- conversion to reduced amidine 1 (LC-MS) (mARC2; listed as amidoxime): completely converted
- turnover rate (NADH consumption) compared with BAO (mARC2; mARC2 with B5 and B5R, substrate 3 mM, pH 6.0, 37 °C): very similar
Structure (SMILES): C/C(=N\O)NC(c1ccccc1)c1ccccc1 [Compound 2, (1E)‐N‐(diphenylmethyl)‐N′‐hydroxyethanimidamide]
